The values below come from ChEMBL document CHEMBL1140617, “Quantitative structure-activity relationship of sesquiterpene lactones with cytotoxic activity” (2007).

≈ marks a conversion by molar mass, not a printed value.

The experiment relates to KB. In words: Cytotoxicity against human KB cells. In kind it is functional. To be noted: for EC50: Homo sapiens, KB, read-out: ED50 (the source's name).

For `C=C1C(=O)O[C@@H]2[C@H]1CC[C@H](C)[C@@H]1C[C@@H](O)C(=O)[C@@]21C`, the pED50 stood at 5 and the EC50 was 2.65 µg/mL (≈ 10 µM).
On the same counts, the results for `C=C1C(=O)O[C@H]2[C@H]1[C@H](OC(=O)/C(C)=C\C)C[C@@]1(CO1)[C@@H]1[C@H](O)[C@H]3O[C@@]3(C)[C@]21O` are 5.18 and 2.6 µg/mL (≈ 6.63 µM).
On the same counts, the results for `C=C1C(=O)O[C@H]2C[C@@H](C)[C@@H]3C=CC(=O)[C@@]3(C)C[C@H]12` (single isomer, unassigned) [AROMATICIN] are 5.86 and 0.34 µg/mL (≈ 1.38 µM).
Turning to `C=C1C(=O)O[C@H]2[C@H]1[C@H](OC(=O)/C(C)=C\C)C[C@](O)(CCl)[C@@H]1[C@H](O)[C@H]3O[C@@]3(C)[C@]21O` (single isomer, unassigned) [EUPACHLOROXIN], the pED50 was 5.08 and the EC50 is 3.6 µg/mL (≈ 8.39 µM).
`C=C1C(=O)O[C@@H]2/C=C(/C)[C@@H](OC(C)=O)CC(O)/C(C)=C\[C@@H](OC(=O)C3(C)O[C@@H]3C)[C@@H]12` (single isomer, unassigned) [EUPACUNOXIN]: the pED50 is given as 5.3 and the EC50 amounted to 2.1 µg/mL (≈ 4.99 µM).
As for `C=C1C(=O)O[C@H]2C[C@@H](C)[C@@H]3C=CC(=O)[C@@]3(C)[C@H](O)[C@H]12` (single isomer, unassigned) [MEXICANIN I], the pED50 came out at 5.9 and the EC50 came out at 0.33 µg/mL (≈ 1.26 µM).
For `C=C[C@@]12COC(=O)C(=C)[C@@H]1[C@H]1OC(=O)C(=C)[C@@H]1[C@@H](OC(=O)C(=C)C)C2` (single isomer, unassigned) [VERNOLEPIN METHACRYLATE] the same measures were 5.91 and 0.42 µg/mL (≈ 1.22 µM).
On the same counts, the results for `C=C1C(=O)O[C@@H]2C[C@@H](C)[C@@H]3C=CC(=O)[C@@]3(C)[C@@H](O)[C@H]12` (stereo in doubt) [HELENALIN] are 6.12 and 0.2 µg/mL (≈ 0.762 µM).
As to `C=C1C(=O)O[C@H]2[C@H]1[C@H](OC(=O)/C(C)=C\C)CC(=C)[C@@H]1[C@H](O)[C@H]3O[C@@]3(C)[C@@]12O` (stereo in doubt; 20) [EUPATUNDIN], the ED50 was 0.47 µg/mL (≈ 1.25 µM) and the pED50 is recorded as 6.46.
With `C=C1C(=O)O[C@H]2[C@H]1[C@H](OC(=O)/C(C)=C\C)CC(=C)[C@@H]1[C@H](O)[C@H]3O[C@@]3(C)[C@@]12O` (stereo in doubt; 28) [EUPATUNDIN], the pED50 is recorded as 5.98 and the EC50 amounted to 0.47 µg/mL (≈ 1.25 µM).
For `C=C1C(=O)O[C@@H]2[C@H]1CC[C@H](C)[C@@H]1C=CC(=O)[C@@]21C` [AMBROSIN] the same measures were 5.74 and 0.45 µg/mL (≈ 1.83 µM).
For `C=C1C(=O)O[C@H]2C/C(C)=C/C[C@@H](OC(C)=O)/C(C)=C/[C@@H](OC(C)=O)[C@H]12` [CHAMISSONIN DIACETATE], the pED50 was found to be 5.68 and the EC50 was determined as 2.13 µg/mL.
Take `C=C1C(=O)O[C@@H]2[C@H]1CC[C@H](C)[C@]1(O)CCC(=O)[C@@]21C` [CORONOPILIN]: the pED50 was found to be 5.26 and the EC50 stood at 1.45 µg/mL (≈ 5.49 µM).
For the molecule `C=C1C(=O)O[C@@H]2/C=C(\C)CCC=C(C)CC[C@@H]12` [COSTUNOLIDE], the pED50 is given as 5.61 and the EC50 came out at 0.57 µg/mL (≈ 2.45 µM).
Consider `C=C1C(=O)O[C@@H]2[C@H]1[C@@H](O)C[C@H](C)[C@@H]1CCC(=O)[C@@]21C` [DESACETYLCONFERTIFLORIN], for which the pED50 stood at 5.06 and the EC50 is 2.3 µg/mL (≈ 8.7 µM).
Turning to `C=C1C(=O)O[C@H]2[C@H]1[C@@H](OC(=O)C=C(C)C)CC1=C[C@@H](C[C@@]3(C)O[C@H]23)OC1=O` [ELEPHANTIN], the pED50 is given as 5.49 and the EC50 was determined as 1.16 µg/mL (≈ 3.1 µM).
For `C=C1C(=O)O[C@H]2CC3=C[C@@H](C[C@]4(C)O[C@@H]4[C@@H](O)[C@H]12)OC3=O` [ELEPHANTOL] the same measures were 3.91 and 36 µg/mL (≈ 123 µM).
Take `C=C(C)C(=O)O[C@H]1CC2=C[C@@H](C[C@@]3(C)O[C@@H]3[C@H]3OC(=O)C(=C)[C@@H]31)OC2=O` [ELEPHANTOPIN]: the pED50 stood at 5.6 and the EC50 is 0.94 µg/mL (≈ 2.61 µM).
On the same counts, the results for `C=C1C(=O)O[C@H]2[C@H]1[C@H](OC(=O)/C(C)=C\C)C[C@](O)(CCl)[C@@H]1[C@H](OC(C)=O)C=C(C)[C@]21O` [EUPACHLORIN ACETATE] are 5.21 and 0.16 µg/mL.
For the molecule `C=C1C(=O)O[C@H]2[C@H]1[C@H](OC(=O)/C(C)=C\C)C[C@](O)(CCl)[C@@H]1[C@H](O)C=C(C)[C@]21O` [EUPACHLORIN], the pED50 worked out at 6.29 and the EC50 is 0.21 µg/mL (≈ 0.509 µM).
On the same counts, the results for `C=C1C(=O)O[C@@H]2/C=C(/CO)[C@@H](OC(C)=O)C[C@H](O)/C(C)=C\[C@@H](OC(=O)C(C)=CC)[C@@H]12` [EUPACUNOLIN] are 5.06 and 3.7 µg/mL (≈ 8.8 µM).
For `C=C1C(=O)O[C@H]2[C@H]1[C@H](OC(=O)/C(C)=C\C)C[C@]1(CO1)[C@@H]1[C@H](OC(C)=O)C=C(C)[C@]21O` [EUPAROTIN ACETATE] the same measures were 6.28 and 0.22 µg/mL.
Molecule `C=C1C(=O)O[C@H]2[C@H]1[C@H](OC(=O)/C(C)=C/C)C[C@]1(CO1)[C@@H]1[C@H](O)C=C(C)[C@]21O` [EUPAROTIN] yielded an ED100 of 0.21 µg/mL and a pED50 of 6.25.
Regarding `C=C1C(=O)O[C@@H]2/C=C(\C)[C@@H](OC(C)=O)C/C=C(/C)C(O)[C@@H](OC(=O)/C(C)=C\C)[C@@H]12` (some centres undefined) [EUPATOCUNIN], the pED50 was 6.57 and the EC50 was found to be 0.11 µg/mL (≈ 0.272 µM).
`C=C1C(=O)O[C@@H]2/C=C(\C)[C@@H](OC(C)=O)CC=C(C)C(OC(=O)[C@]3(C)O[C@@H]3C)C(O)[C@@H]12` (some centres undefined) [EUPATOCUNOXIN]: the pED50 is on record as 5.39 and the EC50 came out at 1.7 µg/mL (≈ 4.04 µM).
On the same counts, the results for `C=C1C(=O)O[C@H]2[C@H]1[C@H](OC(=O)/C(C)=C\C)C[C@]1(CO1)[C@@H]1[C@H](O)[C@H]3O[C@@]3(C)[C@]21O` [EUPATOROXIN] are 5.15 and 2.8 µg/mL (≈ 7.14 µM).
Regarding `C=C1C(=O)O[C@H]2C=C(C)[C@H]3[C@@H](OC(C)=O)C[C@@](C)(O)[C@@H]3C[C@H]12` [GAILLARDIN], the pED50 is 5.12 and the EC50 came to 2.3 µg/mL (≈ 7.51 µM).
With `C=C1C(=O)O[C@@H]2/C=C(/C)[C@@]3(O)C=C[C@@](C)(C[C@@H](OC(=O)/C(=C\C)COC(C)=O)[C@@H]12)O3` [LIATRIN], the pED50 amounted to 5.41 and the EC50 was found to be 1.62 µg/mL (≈ 3.87 µM).
As for `C=C1C(=O)O[C@@H]2[C@H]1CC[C@H](C)[C@]1(O)C=CC(=O)[C@@]21C` [PARTHENIN], the pED50 turned out to be 5.89 and the EC50 is 0.34 µg/mL (≈ 1.3 µM).
With `C=C1C(=O)O[C@@H]2/C=C(\C)C[C@H](O)C=C(C)CC[C@@H]12` [TAMAULIPIN A], the pED50 is 5.29 and the EC50 was 1.26 µg/mL (≈ 5.07 µM).
For `C=C1C(=O)O[C@@H]2/C=C(\C)[C@H](O)CC=C(C)CC[C@@H]12` [TAMAULIPIN B] the same measures were 4.98 and 2.6 µg/mL (≈ 10.5 µM).
Turning to `C=C[C@@]12COC(=O)C(=C)[C@@H]1[C@H]1OC(=O)C(=C)[C@@H]1[C@@H](OC(=O)C(=C)CO)C2` [VERNODALIN], the pED50 is listed as 5.3 and the EC50 was found to be 1.8 µg/mL (≈ 4.99 µM).
Regarding `C=C[C@@]12COC(=O)C(=C)[C@@H]1[C@H]1OC(=O)C(=C)[C@@H]1[C@@H](OC(C)=O)C2` [VERNOLEPIN ACETATE], the pED50 is 5.07 and the EC50 is 2.7 µg/mL.
`C=C[C@@]12COC(=O)C(=C)[C@@H]1[C@H]1OC(=O)C(=C)[C@@H]1[C@@H](O)C2` [VERNOLEPIN]: the pED50 is 5.19 and the EC50 amounted to 1.8 µg/mL (≈ 6.51 µM).
`C=C[C@]12COC(=O)C(=C)[C@H]1[C@H](OC(C)=O)[C@H]1C(=C)C(=O)O[C@@H]1C2` [VERNOMENIN ACETATE]: the pED50 turned out to be 4.58 and the EC50 was determined as 8 µg/mL.
As to `C=C[C@@]12COC(=O)C(=C)[C@@H]1[C@@H](O)[C@@H]1C(=C)C(=O)O[C@H]1C2` [VERNOMENIN], the pED50 was determined as 3.9 and the EC50 is 35 µg/mL (≈ 127 µM).
On the same counts, the results for `C=C1C(=O)O[C@@H]2/C=C3\CCC4OC4(C[C@H](OC(=O)C(C)C)[C@@H]12)C(O)OC3` (some centres undefined) [VERNOMYGDIN] are 5.39 and 1.5 µg/mL (≈ 4.12 µM).
